Source: ChEMBL document CHEMBL5038605, “Probing the Allosteric Inhibition Mechanism of a Spike Protein Using Molecular Dynamics Simulations and Active Compound Identifications” (J Med Chem, 2022)
Calls of active or inactive are those of the source. No cut-off for these calls is given here.

system: SARS-CoV-2; assay: Antiviral activity against SARS-CoV-2 infected in vero E6 cells assessed as inhibition of viral replication at 100 uM preincubated for 1 hr followed by viral infection for 2 hrs by qRT-PCR analysis; assay type: functional, organism-based; details: Severe acute respiratory syndrome coronavirus 2, Vero C1008, time 3.0 hrs

Compound | Activity
O=C(O)c1cccc(-c2ccc(CNCCc3ccccc3)o2)c1 | Active

system: SARS-CoV-2; assay: Antiviral activity against SARS-CoV-2 infected in vero E6 cells assessed as inhibition of viral replication at 100 uM preincubated for 1 hr followed by viral infection for 24 hrs by qRT-PCR analysis; assay type: functional, organism-based; details: Severe acute respiratory syndrome coronavirus 2, Vero C1008, time 25.0 hrs

Compound | Activity
Cc1nn(-c2ccccc2)c(Oc2ccccc2)c1CCC(=O)Nc1ccccc1 | Active
CCn1ccc(-c2nc(C)nn2-c2cc(S(N)(=O)=O)ccc2F)cc1=O | Active
O=C(O)c1ccc(OCc2cccc3ccccc23)cc1 | Active
Cn1cc(-c2cc3n(n2)CCC(=O)N3CC(=O)NCc2ccco2)c2ccccc21 | Active
Cc1ccc2nc(C34CC5CC(CC(C5)C3)C4)cc(C(=O)O)c2c1 | Active
O=C(O)c1cccc(-c2ccc(CNCCc3ccccc3)o2)c1 | Active
CC(=O)N1CCN(c2nc(C)cc(Nc3ccccc3)n2)CC1 | Active
